The values that follow come from US20100056524A1, “Compound” (priority 2008, published 2010).

One experiment has as its target T1, p38s MAPK (Homo sapiens, UniProt O15264).
T1 construct: All protein kinases were of human origin and encoded full length proteins, unless indicated otherwise; made in house
T1 sequence (O15264 1-365): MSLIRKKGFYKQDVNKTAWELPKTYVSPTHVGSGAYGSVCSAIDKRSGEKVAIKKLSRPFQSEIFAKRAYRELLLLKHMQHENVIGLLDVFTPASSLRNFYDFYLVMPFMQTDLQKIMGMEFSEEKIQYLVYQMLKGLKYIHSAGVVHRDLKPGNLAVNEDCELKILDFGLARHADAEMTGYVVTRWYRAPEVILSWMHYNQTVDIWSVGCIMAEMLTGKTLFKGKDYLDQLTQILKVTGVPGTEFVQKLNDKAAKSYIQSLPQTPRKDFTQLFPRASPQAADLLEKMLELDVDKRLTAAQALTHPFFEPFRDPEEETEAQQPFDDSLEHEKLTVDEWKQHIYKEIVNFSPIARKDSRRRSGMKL
Nature of the experiment: p38s MAPK protein kinase assay. The experiment is classed as biochemical. The following applies: for remaining activity at 10 µM: 10 μM compound; for residual kinase activity p38s MAPK: 1 μm compound; for remaining activity at 1 µM: 1 μM compound. An excerpt: All protein kinases were of human origin and encoded full length proteins, unless indicated otherwise. They were either expressed as glutathione S-transferase (GST) fusion proteins in Escherichia Coli or as hexahistidine (His6)-tagged proteins in insect Sf21 cells. GST fusion proteins were purified by affinity chromatography on glutathione-Sepharose, and His6-tagged proteins on nickel/nitriloacetate-agarose. The procedures for expressing some of the protein kinases used herein have been detailed previously.^8,9 The following sections outline the DNA vectors synthesised and the procedures used to express and purifying protein kinases that have not been reported previously.
All assays (25.5 μl) were carried out at room temperature (21° C.) and were linear with respect to time and enzyme concentration under the conditions used. Assays were performed for 30 min using Multidrop Micro reagent dispensers (Thermo Electron Corporation, Waltham, Mass. 02454, USA) in a 96-well format. The concentration of magnesium acetate in the assays was 10 mM and the [γ-33P] ATP (800 cpm/pmol) was used at 5, 20 or 50 μM as indicated, in order to be at or below the Km for ATP for each enzyme. Protein kinases assayed at 5 μM ATP were: —ERK1, ERK8, PKBα, MARK3, Aurora C. Protein kinases assayed at 20 μM ATP were: —JNK1, PDK1, CHK1, CHK2, CDK2 and Aurora B. Protein kinases assayed at 50 μM ATP were: —MNK2, IKKepsilon and TBK1.
The assays were initiated with MgATP, stopped by addition of 5 μl of 0.5 M orthophosphoric acid and spotted on to P81 filterplates using a unifilter harvester (PerkinElmer, Boston, Mass. 02118, USA). The IC50 values of inhibitors were determined after carrying out assays at 10 different concentrations of each compound.
Unless stated otherwise, enzymes were diluted in 50 mM Tris/HCl pH 7.5, 0.1 mM EGTA, 1 mg/ml BSA, 0.1% (v/v) 2-mercaptoethanol and assayed in 50 mM Tris/HCl pH 7.5, 0.1 mM EGTA, 0.1% (v/v) 2-mercaptoethanol.

The test system of experiment [1] is panel of different kinases. Nature of the experiment: Selectivity across kinase panel (Gini coefficient). In kind it is biochemical, human. Conditions: for GINI Coefficient: value between 0 and 1, higher = more selective. An excerpt:
Table compares the activity of Example 23 with cyclobutanecarboxylic acid {3-[5-bromo-2-(3-fluoro-phenylamino)-pyrimidin-4-ylamino]-propyl}-amide (Compound A)^13, against a panel of different kinases, where the residual kinase activity, in %, at two concentrations of the compounds is expressed. The higher the percentage residual activity, the lower the degree of inhibition of the kinase.

The mark [2] stands for this setting: read-out: residual kinase activity p38s MAPK.
[3] abbreviates: p38s MAPK, read-out: residual kinase activity.

Each structure is given as a SMILES string. Where a name gives a salt, the structure may show the parent alone. Read-outs that look alike come from different tables or passages of the source.

As to `O=C(NCCCNc1nc(Nc2cccc(F)c2)ncc1Br)C1CCC1` [Compound A, cyclobutanecarboxylic acid {3-[5-bromo-2-(3-fluoro-phenylamino)-pyrimidin-4-ylamino]-propyl}-amide, reference compound], the remaining activity at 10 µM at p38s MAPK (setting [2]) is 15%. In addition, the “residual kinase activity p38s MAPK” value at p38s MAPK is reported as 55%. The “GINI Coefficient” value in experiment [1] (@ 10 μM) was 0.19; in experiment [1] (in words) it was “significantly lower value than Example 23”.
In the case of `O=C(NCCCNc1nc(Nc2cccc(N3CCCC3=O)c2)ncc1C1CC1)c1cccs1` [Example 47, Thiophene-2-carboxylic acid (3-{5-cyclopropyl-2-[3-(2-oxo-pyrrolidin-1-yl)-phenylamino]-pyrimidin-4-ylamino}-propyl)-amide. Hydrochloride salt], at p38s MAPK (setting [3]), the remaining activity at 1 µM stood at 84% and the remaining activity at 10 µM came to 84%.
In the case of `O=C(NCCCNc1nc(Nc2cccnc2)ncc1C1CC1)c1cccs1` [Example 50, Thiophene-2-carboxylic acid {3-[5-cyclopropyl-2-(pyridin-3-ylamino)-pyrimidin-4-ylamino]-propyl}-amide], at p38s MAPK (setting [3]), the remaining activity at 1 µM was determined as 79% and the remaining activity at 10 µM came out at 67%.
Take `O=C(NCCCNc1nc(Nc2cccc(F)c2)ncc1C1CC1)C1CCC1` [Example 23, Cyclobutanecarboxylic acid {3-[5-cyclopropyl-2-(3-fluoro-phenylamino)-pyrimidin-4-ylamino]-propyl}-amide]: the remaining activity at 10 µM on p38s MAPK (setting [2]) was 72%. In addition, on p38s MAPK, the “residual kinase activity p38s MAPK” value was determined as 77%. Besides, at p38s MAPK (setting [3]), the remaining activity at 1 µM was determined as 77% and the remaining activity at 10 µM worked out at 72%. Besides, the “GINI Coefficient” value in experiment [1] (@ 10 μM) was 0.35. The “selectivity across kinase panel” value in experiment [1] (in words) is recorded as “significant improvement of selectivity across this kinase panel”.
